Test results as given in patent US20140255358A1, “GENERATION OF IMMUNOSUPPRESSIVE MYELOID CELLS USING PGE2” (priority 2011, published 2014).

Key:
Type in all cases: cell-based, human
[1] = test system: myeloid suppressive cells; test: Induction of immunosuppressive factor mRNA by PGE2 and EP agonists (FIG. 3)
Text: FIG. 3. PGE2, EP4 and EP2 agonists mediate enhanced development of MDSCs. […] All data were confirmed in 3-7 independent experiments. Bar graphs present data of a single representative experiment with different donors as mean±s.d.

[2] = test system: monocytes isolated from healthy blood donors; test: Induction of COX2 and suppressive factors in short-term cultured monocytes (FIG. 1)
Experimental: FIG. 1. The induction of endogenous COX2 and MDSC-associated suppressive factors in monocytes by PGE2. (A) Expression of COX2 mRNA (A, left) and protein (A, right) levels in monocytes isolated from healthy blood donors is induced by synthetic PGE2. Regulation of COX1 and COX2 expression by synthetic PGE2 was analyzed after 6-10 h. […] All data (panels A-B) were confirmed in at least 3 independent experiments. Bar graphs present data of a single representative experiment with different donors as mean±s.d. P<0.05 marked *; P<0.01 marked **; P<0.001 marked ***.

[3] = test system: differentiating monocytes; test: Six-day GM-CSF and IL-4-supplemented cultures of differentiating monocytes: phenotype, suppressive factors, CD8+ T cell suppression (FIG. 2)
Text: PGE2 acts on four subtypes of G protein-coupled receptors designated EP1, EP2, EP3, and EP4, among which EP2 and EP4 signaling is coupled to rise in cAMP concentration.
FIG. 2. PGE2 redirects DC differentiation and induces CD14^+CD33^+CD34^+ cells with the phenotype and function similar to monocytic MDSCs. (A) Phenotype of PGE2-induced CD1a^−CD14^+CD80^−CD83^− suppressive cells expressing inhibitory molecules ILT2, ILT3, ILT4, PDL-1, but not PDL-2. PGE2-induced suppressive cells express E-prostanoid receptors (labeled with α-EP1-, α-EP3- sec.Alexa488 and α-EP2-, α-EP4-PE). […] (bottom) Expression of immunosuppressive factors IL10, IDO1, IL4Rα and COX2 in PGE2-induced suppressive cells. (C) Immunosuppressive effects of PGE2-induced suppressive cells on allogeneic naïve CFSE-labeled CD8^+ T cells primed by CD3/CD28 and stained for granzyme B. Left panel: Percentages indicate the fraction of proliferating granzyme B^+ (marker of CTL status) CD8^+ cells. Right panel: Percentage of proliferating CD8^+ T cells in the presence of PGE2-induced suppressive cells (PGE2-d0) and PGE2-conditioned DCs (PGE2-d6). All data (panels A-C) were confirmed in at least 3 independent experiments. Bar graphs present data of a single representative experiment with different donors as mean±s.d. P<0.05 marked *; P<0.01 marked **; P<0.001 marked ***.

[4] = test system: PGE2-induced myeloid suppressive cells; test: Dose-dependent induction of immunosuppressive factors with or without IL-4 (FIG. 4); settings: presence or absence of IL-4
Text: FIG. 4 Minimal requirement for high doses of PGE2 in the functional induction of myeloid suppressive cells, regardless of the presence or absence of IL-4. (A) Dose-dependent expression of immunosuppressive factors IL10, IDO1, IL4Rα and COX2 in PGE2-induced suppressive cells, generated in the presence or absence of IL-4. Histograms present data of a single representative experiment with different donors as mean±s.d.

suppressive cells = test: Yield of ex vivo generated cells (FIG. 5); settings: N=12 donors, mean
Text: Yield of PGE2-induced myeloid suppressive cells was similar as the yield of iDCs and TNF-a matured DCs (FIG. 5). FIG. 5. PGE2 allows for ex vivo generation of high numbers of suppressive cells. […] Histograms present data of individual experiments (N=12) with different donors as mean±s.d.

## CCCC1([C@H](O)C/C=C/[C@H]2[C@H](O)CC(=O)[C@@H]2CCCCCCC(=O)OC)CCC1 [Butaprost]
[1]
  induction of immunosuppressive factors arginase, IDO1, NOS2, IL-4Rα, IL10 and COX2 mRNA: induced high levels

## O=C1CC[C@H](/C=C/[C@@H](O)Cc2ccccc2)N1CCCCCCc1nn[nH]n1 [CAY10598]
[1]
  induction of immunosuppressive factors arginase, IDO1, NOS2, IL-4Rα, IL10 and COX2 mRNA: induced high levels

## CCCCC[C@H](O)/C=C/[C@H]1[C@H](O)CC(=O)[C@@H]1C/C=C\CCCC(=O)O [PGE2, (5Z,11 alpha,13E,15S)-11,15-dihydroxy-9-oxoprosta-5,13-dien-1-oic acid]
[2]
  expression of additional immunosuppressive factors IDO1, NOS2, IL-10, IL4Rα: induced the expression
[2]; analyzed after 6-10 h
  expression of endogenous COX2: start expressing endogenous COX2
[3]; added to GM-CSF and IL-4-supplemented cultures of differentiating monocytes
  induction of CD1a+CD14- DCs: abolished the induction of CD1a^+CD14^− DCs
[3]; added to GM-CSF/IL-4-supplemented monocyte cultures
  CTL-suppressive function: sufficient to induce the CTL-suppressive function
[3]; after 6 days of culture
  IL-10 production: 261 pg/mL
[1]
  induction of immunosuppressive factors arginase, IDO1, NOS2, IL-4Rα, IL10 and COX2 mRNA: Induction of immunosuppressive factors
[4]
  induction of IL4Rα: less pronounced, but also significant
  production of IL-10, ARG-1, NOS2 and IDO1: dose-dependently induced
Suppressive cells
  yield of cells: 48.6%

## TNF-α
Suppressive cells
  yield of cells: 36.9%
